One experiment relates to diabetic NOD pregnancies. Briefly: NOD diabetic pregnancies and folinic acid supplementation. Type of experiment: in vivo, mouse. The protocol:
All animal experiments were performed with prior approval from the Pennington Biomedical Research Center IACUC, and were conducted in accordance with the “Guide for the care and use of laboratory animals” of the United States National Institutes of Health. Animals were housed with a 12-hour light/dark cycle, with access to food and water ad libitum. Mice of the Non-Obese Diabetic strain (NOD/ShiLtJ, The Jackson Laboratory, Bar Harbor, Me.; sometimes referred to as “NOD” mice), as well as male mice of strain FVB were kept on Purina™ 5001 diet (calories provided by: Protein, 28.5%; Fat, 13.5%; Carbohydrate, 58%. LabDiet, Purina Mills Inc., Gray Summit, Mo.). Females of strain FVB were kept on Purina 5015 diet (calories provided by: Protein, 19.8%; Fat, 25.3%; Carbohydrate, 54.8%). Blood glucose levels were monitored weekly in NOD mice. Once blood glucose exceeded 250 mg/dl, females were considered diabetic, and were then used for mating and production of embryos. Diabetic as well as normoglycemic NOD female mice were mated to normoglycemic NOD male mice; once NOD males became hyperglycemic, they were retired from the experiment and were no longer used. Supplementation with folinic acid (12.5 mg/kg body weight, once per week by intraperitoneal injection) was initiated at the age of 10 weeks in 56 NOD females. […]

Experiment [1] has as its system STZ-induced diabetic mouse pregnancies. The following applies: cited from earlier work.

Regarding `Nc1nc(=O)c2c([nH]1)NCC(CNc1ccc(C(=O)N[C@@H](CCC(=O)O)C(=O)O)cc1)N2C=O` (mixture of isomers) [folinic acid], the “NTD incidence (in words)” value with diabetic NOD pregnancies (NOD strain, folinic acid supplementation) was “reduced”. Besides, the “incidence of neural tube defects in embryos” value in the experiment with diabetic NOD pregnancies (diabetic NOD pregnancies, gestation day 10.5, 12.5 mg/kg once per week i.p., 17 NTDs in 81 embryos, unsupplemented 40.2%, Fisher's Exact Test p=0.006) worked out at 21%.

With `Nc1nc2ncc(CNc3ccc(C(=O)N[C@@H](CCC(=O)O)C(=O)O)cc3)nc2c(=O)[nH]1` [folic acid], in experiment [1], the “effect on NTDs (in words)” value is “beneficial effects”.

The values are drawn from patent publication US20180299431A1, “Explant Assay to Determine the Potential for Compositions to Promote or to Inhibit Neural Tube Defects” (Board of Supervisors of Louisiana State University and …, priority 2015, published 2018).
